The results in this text go back to a melting point compilation (Tetko et al.; mined from patent text by program, amines drawn as free bases though some values may be those of a salt).

The term melting point denotes the temperature, or range, at which the solid turns liquid. The compound `COC(=O)c1ccc(C2C(=O)Oc3c2cc(C(C)(C)C)cc3C(C)(C)C)cc1` (centres undefined) had a melting point of 135 to 136 °C.

Turning to `COc1ccc2c(c1)C1(C)CC(=O)N(C)C1(O)CC2` (centres undefined), the melting point lay in the range of 182 to 186 °C.

In turn, `CC1Cc2cc3c(cc2C(c2ccc([N+](=O)[O-])cc2)=NN1C(=O)CCCC(=O)O)OCO3` (centres undefined) returned a melting point of 148 to 150 °C.

`CCOC(=O)/C=C/c1cc(-c2ccccc2)nn1Cc1ccc(Cl)cc1Cl` registered a melting point of 123 to 124 °C.

The compound `O=C(Nc1ccc(C#CCCN2CC=C(c3ccccc3)CC2)nc1)c1cccs1` came in with a melting point of 187 to 188 °C.

For the compound `CCCCOc1c(CNC(=O)OC(C)(C)C)n(CC(C)C)c(=O)c2ccc(C#N)cc12`, the melting point lay in the range of 126 to 127 °C.

`Nc1cc2c(Nc3ccc(F)c(Br)c3)ncnc2cn1` displayed a melting point of 269 to 271 °C.

Compound `O=C(O)c1cc(C(F)(F)F)cc(S(=O)(=O)Cc2ccccc2)c1` came in with a melting point of 184 to 186 °C.

On to `OC1CCCN(CC(O)COc2ccc(-c3ccc(F)cc3)cc2)C1` (centres undefined), for which the melting point fell in the range of 100 to 102 °C.

In the case of `Clc1cccc2c1CN(Cc1c[nH]c3ccccc13)C2`, the melting point lay in the range of 163 to 165 °C.

Compound `COc1c(N2C[C@H](CF)[C@](C)(N)C2)c(F)cc2c(=O)c(C(=O)O)cn(C3CC3)c12` had a melting point of 226 to 229 °C.

Turning to `Cc1ccc(C(=O)NC(NC(=NC#N)Nc2cccc(F)c2)C(C)(C)C)cc1` (centres undefined), the melting point fell in the range of 193 to 194 °C.

Take `CCCc1cc(=O)oc2cc(OC(=O)C(C)(C)C)cc(OC(=O)C(C)(C)C)c12`: the melting point was 110 to 112 °C.

Compound `COc1cccc(NC(=O)c2ccccc2C(=O)O)c1` displayed a melting point of 168 to 169 °C.

Compound `COc1cc(CO)nnc1OC` had a melting point of 151 to 153 °C.

The compound `CN(C(N)=O)c1cc(C(C)(C)C)on1` displayed a melting point of 134 to 135 °C.

On to `C[C@]1(COC(=O)N(c2ccc(Cl)cc2)c2ccc(Cl)cc2)Cn2cc([N+](=O)[O-])nc2O1`, for which the melting point was 200 to 201 °C.

As to `CCOC(=O)c1[nH]c(=O)c(CC(C)C)[n+]([O-])c1O`, the melting point lay within 153 to 155 °C.

In turn, `CCNC(=O)c1ccncc1` gave a melting point of 93 to 95 °C.

Compound `CCCCN(CCCC)c1ccc(C=CC2=C(C#N)C(=C(C#N)C#N)OC2(C)C)c(OC)c1` yielded a melting point of 222 to 226 °C.

Regarding `CCCCCCOP(=O)(OCCCCCC)c1ccc(NC(=O)c2cccc([N+](=O)[O-])c2)cc1`, the melting point was determined as 98 °C.

`O=C(O)Cc1c(-c2ccccc2)nn(-c2cccc(C(F)(F)F)c2)c1-c1ccccc1` returned a melting point of 166 to 167 °C.

In turn, `O=C1CCCC(=O)C1=CC=Cc1ccccc1` returned a melting point of 116 to 118 °C.

Compound `O=C(O)CC1CCCc2c1n(Cc1cccc(Cl)c1)c1c(F)cc(F)cc21` (centres undefined) yielded a melting point of 188 to 189 °C.

`O=C(OCOC(=O)C1CCc2c(c3ccccc3n2C(=O)c2ccccc2)C1)c1ccccc1` (centres undefined) yielded a melting point of 84 to 86 °C.

`Cc1csc(C2=NOCCO2)c1S(N)(=O)=O` yielded a melting point of 155 °C.

`CCCCCC(C)C(C)c1cc(O)c2c3c(c(=O)oc2c1)CSCC3` (centres undefined) showed a melting point of 150 to 152 °C.

In turn, `C=C(C(=O)NS(=O)(=O)c1cccc(C#N)c1)c1ccc(OCCOC)cc1Oc1ncc(C(F)(F)F)cc1Cl` had a melting point of 195 to 197 °C.

For the compound `CCOP(=O)(Cc1cccc(CN2C(=O)c3ccccc3C2=O)c1)OCC`, the melting point fell in the range of 100 to 101 °C.

`NS(=O)(=O)c1cc2c(s1)S(=O)(=O)N(CCN1CCOCC1)N=C2` yielded a melting point of 164 to 166 °C.

Take `CCCOc1ccc(CSc2nc(SC)n(CC)c(=O)c2C)cc1`: the melting point lay in the range of 91 to 93 °C.

As to `Nc1ccc(Oc2ncc(C(F)(F)F)cc2Cl)cc1`, the melting point lay within 85 to 87 °C.

As to `Cc1nn(C)c(C)c1CNC(=O)c1ccnc(N2CCN(Cc3ccc(F)cc3)C2=O)c1`, the melting point was in the range of 179 to 181 °C.

With `NCCc1cc2c(-c3ccccc3)c(CC(=O)Nc3ccc(Cl)cc3C(F)(F)F)c(=O)oc2cc1Cl`, the melting point fell in the range of 165 to 167 °C.
